Experimental findings from patent publication US20230340011A1 (Asteroid Therapeutics, priority 2022, published 2023) are described below.

pIC50: −log10 of the molar value. A value given as a limit tells only on which side of the number the result lay.

This experiment deals with SREBP-2 (Homo sapiens (Human), UniProt Q12772). Description: In vitro assay SREBP-2: PathHunter U2OS SREBP-2 Nuclear Translocation Cell Line, U18666A-stimulated. Type of experiment: cell-based. To be noted: PathHunter U2OS SREBP-2 nuclear translocation cells, U18666A 10 μM, overnight (16 hours).

Compound `CON(C)C(=O)CC[C@@H](C)[C@H]1CC[C@H]2[C@@H]3CC=C4C[C@@H](O)CC[C@]4(C)[C@H]3CC[C@]12C` [Example 1, (R)-4-((3S,8S,9S,10R,13R,14S,17R)-3-hydroxy-10,13-dimethyl-2,3,4,7,8,9,10,11,12,13,14,15,16,17-tetradecahydro-1H-cyclopenta[a]phenanthren-17-yl)-N-methoxy-N-methylpentanamide] gave a negative logarithm of the IC50 (pIC50) greater than 6.60. As to `C[C@H](CCC(=O)N1CCNCC1)[C@H]1CC[C@H]2[C@@H]3CC=C4C[C@@H](O)CC[C@]4(C)[C@H]3CC[C@]12C` [Example 2, (R)-4-((3S,8S,9S,10R,13R,14S,17R)-3-hydroxy-10,13-dimethyl-2,3,4,7,8,9,10,11,12,13,14,15,16,17-tetradecahydro-1H-cyclopenta[a]phenanthren-17-yl)-1-(piperazin-1-yl) pentan-1-one], the pIC50 was 6.00 to 6.60. Take `CC(=O)N1CCN(C(=O)CC[C@@H](C)[C@H]2CC[C@H]3[C@@H]4CC=C5C[C@@H](O)CC[C@]5(C)[C@H]4CC[C@]23C)CC1` [Example 3, (R)-1-(4-acetylpiperazin-1-yl)-4-((3S,8S,9S,10R,13R,14S,17R)-3-hydroxy-10,13-dimethyl-2,3,4,7,8,9,10,11,12,13,14,15,16,17-tetradecahydro-1H-cyclopenta[a]phenanthren-17-yl)pentan-1-one]: the pIC50 is greater than 6.60. Turning to `C[C@H](CCC(=O)N1CCN(C(N)=O)CC1)[C@H]1CC[C@H]2[C@@H]3CC=C4C[C@@H](O)CC[C@]4(C)[C@H]3CC[C@]12C` [Example 4, 4—((R)-4-((3S,8S,9S,10R,13R,14S,17R)-3-hydroxy-10,13-dimethyl-2,3,4,7,8,9,10,11,12,13,14,15,16,17-tetradecahydro-1H-cyclopenta[a]phenanthren-17-yl)pentanoyl)piperazine-1-carboxamide], the pIC50 is greater than 6.60. On to `C[C@H](CCC(=O)N1CCOCC1)[C@H]1CC[C@H]2[C@@H]3CC=C4C[C@@H](O)CC[C@]4(C)[C@H]3CC[C@]12C` [Example 7, (R)-4-((3S,8S,9S,10R,13R,14S,17R)-3-hydroxy-10,13-dimethyl-2,3,4,7,8,9,10,11,12,13,14,15,16,17-tetradecahydro-1H-cyclopenta[a]phenanthren-17-yl)-1-morpholinopentan-1-one], for which the negative logarithm of the IC50 (pIC50) is greater than 6.60. Compound `C[C@H](CC[C@](O)(C1CCC1)C(F)(F)F)[C@H]1CC[C@H]2[C@@H]3CC=C4C[C@@H](O)CC[C@]4(C)[C@H]3CC[C@]12C` [Example 25, (3S,8S,9S,10R,13R,14S,17R)-17-((2R,5S)-5-cyclobutyl-6,6,6-trifluoro-5-hydroxyhexan-2-yl)-10,13-dimethyl-2,3,4,7,8,9,10,11,12,13,14,15,16,17-tetradecahydro-1H-cyclopenta[a]phenanthren-3-ol] showed a pIC50 of 6.00 to 6.60. With `C[C@H](CCC(=O)N(C)OCCCC(F)(F)F)[C@H]1CC[C@H]2[C@@H]3CC=C4C[C@@H](O)CC[C@]4(C)[C@H]3CC[C@]12C` [Example 32, (R)-4-((3S,8S,9S,10R,13R,14S,17R)-3-hydroxy-10,13-dimethyl-2,3,4,7,8,9,10,11,12,13,14,15,16,17-tetradecahydro-1H-cyclopenta[a]phenanthren-17-yl)-N-methyl-N-(4,4,4-trifluorobutoxy)pentanamide] the figure was 6.00 to 6.60. The compound `C[C@H](OC(=O)C(=O)N(C)C)[C@H]1CC[C@H]2[C@@H]3CC=C4C[C@@H](O)CC[C@]4(C)[C@H]3CC[C@]12C` [Example 35, (S)-1-((3S,8S,9S,10R,13S,14S,17S)-3-hydroxy-10,13-dimethyl-2,3,4,7,8,9,10,11,12,13,14,15,16,17-tetradecahydro-1H-cyclopenta[a]phenanthren-17-yl)ethyl 2-(dimethylamino)-2-oxoacetate] gave a negative logarithm of the IC50 (pIC50) of 6.00 to 6.60.

A word on the pIC50: it is the negative decadic logarithm of the IC50, by convention in mol/L. A high value points to a low IC50.
